# Data as given in patent publication US20080021026A1, “BENZOTHIOPHENE INHIBITORS OF RHO KINASE” (priority 2006, published 2008).
# Where two headings read alike, the source gives them in different places.
# Assays:
# [1] = biological target: T1, recombinant N-terminal GST-tagged human Rho kinase 1 (ROCK1, amino acids 1-535) (Homo sapiens, UniProt Q13464); experiment: In vitro Rho kinase assay (luciferase-based ATP consumption), ROCK1; format: biochemical
# T1 construct: ROCK1, amino acids 1-535; purchased Invitrogen Inc. PV-3691
# T1 sequence (Q13464 1-535): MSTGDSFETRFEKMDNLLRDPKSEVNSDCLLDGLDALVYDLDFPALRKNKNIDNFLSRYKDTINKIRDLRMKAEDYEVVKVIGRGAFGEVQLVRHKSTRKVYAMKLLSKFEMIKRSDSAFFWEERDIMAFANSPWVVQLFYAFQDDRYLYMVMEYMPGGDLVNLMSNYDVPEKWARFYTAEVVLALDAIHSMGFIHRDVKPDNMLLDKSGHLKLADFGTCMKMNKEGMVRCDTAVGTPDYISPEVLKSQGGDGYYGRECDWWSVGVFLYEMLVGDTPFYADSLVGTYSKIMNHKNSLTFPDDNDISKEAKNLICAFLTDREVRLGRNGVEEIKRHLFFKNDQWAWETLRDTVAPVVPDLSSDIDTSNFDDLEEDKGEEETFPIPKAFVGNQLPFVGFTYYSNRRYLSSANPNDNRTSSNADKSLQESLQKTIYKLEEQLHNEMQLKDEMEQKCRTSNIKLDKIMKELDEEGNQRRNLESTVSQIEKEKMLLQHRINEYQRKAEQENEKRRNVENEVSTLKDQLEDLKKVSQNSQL
# Method: In Vitro Rho Kinase Assay
# Rho kinase biochemical assays described below depend on firefly luciferase-based, indirect measurement of total ATP consumption by the kinase following incubation with substrate and ATP. 25 μl of Rho kinase assay buffer (20 mM Tris-HCL [pH 7.5], 1 mM MgCl2, 0.4 mM CaCl2, 0.15 mM EGTA, 0.1 mg/ml bovine serum albumin) containing 0.82 μg/ml of recombinant N-terminal GST-tagged human Rho kinase 1 (ROCK1, amino acids 1-535, Invitrogen Inc., cat. #PV-3691) or recombinant N-terminal GST-tagged human Rho kinase 2 (ROCK2, amino acids 1-552, Invitrogen Inc., cat #PV3759), 100 μg/ml S6 peptide substrate (related to amino acids 218-249 of the human 40S ribosomal protein S6, and suitable for ROCK1 or ROCK2, e.g. Upstate/Millipore Inc., cat #12-420), and 3 µM ATP are dispensed to wells of a 384 multi-well opaque plate. The plate is centrifuged for 30 seconds at approximately 200×g. 240 nl of test compound in DMSO is dispensed to each well by passive pin transfer. The lag phase of this in vitro kinase reaction permits addition of compounds soon after the reaction initiates. The reaction is allowed to incubate at 30° C. for 2 hours. The assay plates are sealed and maintained in a humidified environment. After 2 hours, 25 μl of easylite protein kinase assay reagent (Perkin-Elmer, Inc.) is dispensed. After an additional 10 minute incubation at room temperature (about 22° C.), luminescence activity is measured on a Molecular Devices Analyst multi-mode plate reader or other suitable plate reader. Kinase inhibition results in less ATP consumption, and therefore increased luminescence signal. Negative control activity is measured with DMSO lacking any test compound. The positive control is 2-methyl-1-(4-methylisoquinolin-5-ylsulfonyl)perhydro-1,4-diazepine hydrochloride (aka H-1152P, HCl salt). Efficacy is measured as a percentage of positive control activity. […] The designation NT means the cited example was not tested.
# [2] = biological target: T2, recombinant N-terminal GST-tagged human Rho kinase 2 (ROCK2, amino acids 1-552) (Homo sapiens, UniProt O75116); experiment: In vitro Rho kinase assay (luciferase-based ATP consumption), ROCK2; format: biochemical
# T2 construct: ROCK2, amino acids 1-552; purchased Invitrogen Inc. PV3759
# T2 sequence (O75116 1-552): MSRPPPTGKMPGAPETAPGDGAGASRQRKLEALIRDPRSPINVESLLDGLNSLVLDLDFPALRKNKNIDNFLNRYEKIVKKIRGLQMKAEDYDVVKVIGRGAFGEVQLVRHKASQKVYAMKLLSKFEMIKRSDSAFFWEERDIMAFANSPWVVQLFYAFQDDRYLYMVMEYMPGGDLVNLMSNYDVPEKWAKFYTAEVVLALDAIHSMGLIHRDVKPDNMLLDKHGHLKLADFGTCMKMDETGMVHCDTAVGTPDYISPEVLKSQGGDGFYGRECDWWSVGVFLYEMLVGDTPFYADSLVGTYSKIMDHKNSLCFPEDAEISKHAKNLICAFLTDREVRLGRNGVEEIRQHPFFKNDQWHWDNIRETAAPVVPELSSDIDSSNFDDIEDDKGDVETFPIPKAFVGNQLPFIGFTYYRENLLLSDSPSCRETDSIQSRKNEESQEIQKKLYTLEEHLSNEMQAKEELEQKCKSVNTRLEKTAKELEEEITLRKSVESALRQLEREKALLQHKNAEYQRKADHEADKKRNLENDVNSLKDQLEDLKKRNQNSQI
# Summary of the method: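 GST-ROCK2 (aa 1-552, 0.82 μg/ml) with 100 μg/ml S6 peptide and 3 µM ATP in Tris pH 7.5 buffer with MgCl2/CaCl2/EGTA/BSA, compound added just after reaction start, 2 h at 30 °C. Remaining ATP read by luciferase luminescence. Efficacy expressed as percentage of H-1152P positive control.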
# [3] = recombinant GST-tagged human ROCK1, luciferase-based ATP consumption, read-out: ROCK1 IC50
# [4] = recombinant GST-tagged human ROCK2, luciferase-based ATP consumption, read-out: ROCK2 IC50
# [5] = ROCK1 IC50, recombinant GST-tagged human ROCK1, luciferase-based ATP consumption
# [6] = ROCK2 IC50, recombinant GST-tagged human ROCK2, luciferase-based ATP consumption
"IC50 [2, 4] [µM]",Compound,other results
< 5,"Cc1c(-c2ccnc(N)n2)sc2ccc(CNC(=O)c3c(O)ccc4ccccc34)cc12 [Example 237, Cc1c(sc2ccc(CNC(═O)c3c(O)ccc4ccccc34)cc12)-c5ccnc(N)n5]","IC50 [1, 3]: < 5 µM"
< 5,"Cc1c(-c2ccnc(N)n2)sc2ccc(Cc3cccc(C(=O)NCCN4CCOCC4)c3)cc12 [Example 48, 3-((2-(2-Aminopyrimidin-4-yl)-3-methylbenzo[b]thiophen-5-yl)methyl)-N-(3-morpholinoethyl)benzamide]","IC50 [1, 3]: < 5 µM"
< 5,"Cc1c(-c2ccnc(N)n2)sc2ccc(Cc3cccc(C(=O)OC(C)C)c3)cc12 [Example 43, Isopropyl 3-((2-(2-aminopyrimidin-4-yl)-3-methylbenzo[b]thiophen-5-yl)methyl)benzoate]","IC50 [1, 3]: < 5 µM"
–,"Cc1c(-c2ccnc(N)n2)sc2ccc(CNC(=O)c3c(F)cccc3Cl)cc12 [Example 195, Cc1c(sc2ccc(CNC(═O)c3c(F)cccc3Cl)cc12)-c4ccnc(N)n4]","IC50 [1, 5]: < 5 µM; IC50 [2, 6]: < 5 µM"
< 5,"COc1cc(OC)cc(C(=O)NCc2ccc3sc(-c4ccnc(N)n4)c(C)c3c2)c1 [Example 221, COc1cc(OC)cc(c1)C(═O)NCc2ccc3sc(c(C)c3c2)-c4ccnc(N)n4]","IC50 [1, 3]: > 5 µM"
–,"Cc1c(-c2ccnc(N)n2)sc2ccc(CNC(=O)c3c(Cl)cc(Cl)cc3Cl)cc12 [Example 300, Cc1c(sc2ccc(CNC(═O)c3c(Cl)cc(Cl)cc3Cl)cc12)-c4ccnc(N)n4]","IC50 [1, 5]: > 5 µM; IC50 [2, 6]: < 5 µM"
–,"Cc1c(-c2ccnc(N)n2)sc2ccc(CNC(=O)C(NC(=O)OC(C)(C)C)C(C)C)cc12 (stereo not shown) [Example 293, CC(C)[C](NC(═O)OC(C)(C)C)C(═O)NCc1ccc2sc(c(C)c2c1)-c3ccnc(N)n3]","IC50 [1, 3]: > 5 µM"
> 5,"Cc1c(-c2ccnc(N)n2)sc2ccc(C(=O)N3CCN(c4ccc(Cl)cc4)CC3)cc12 [Example 545, Cc1c(sc2ccc(cc12)C(═O)N3CCN(CC3)c4ccc(Cl)cc4)-c5ccnc(N)n5]",–
< 5,"Cc1c(-c2ccnc(N)n2)sc2ccc(C(=O)NCCOc3ccccc3)cc12 [Example 401, Cc1c(sc2ccc(cc12)C(═O)NCCOc3ccccc3)-c4ccnc(N)n4]",–
< 5,"CCCCN(CC)C(=O)c1ccc2sc(-c3ccnc(N)n3)c(C)c2c1 [Example 477, CCCCN(CC)C(═O)c1ccc2sc(c(C)c2c1)-c3ccnc(N)n3]",–
> 5,"Cc1c(-c2ccnc(N)n2)sc2ccc(C(=O)N3CCN(c4ccccn4)CC3)cc12 [Example 514, Cc1c(sc2ccc(cc12)C(═O)N3CCN(CC3)c4ccccn4)-c5ccnc(N)n5]",–
< 5,"Cc1c(-c2ccnc(N)n2)sc2ccc(C(=O)NC3CCCC3)cc12 [Example 346, Cc1c(sc2ccc(cc12)C(═O)NC3CCCC3)-c4ccnc(N)n4]",–
> 5,"COc1cc(CN(C)C(=O)c2ccc3sc(-c4ccnc(N)n4)c(C)c3c2)cc(OC)c1OC [Example 555, COc1cc(CN(C)C(═O)c2ccc3sc(c(C)c3c2)-c4ccnc(N)n4)cc(OC)c1OC]",–
< 5,"CCCC(C)NC(=O)c1ccc2sc(-c3ccnc(N)n3)c(C)c2c1 (stereo not shown) [Example 347, CCCC(C)NC(═O)c1ccc2sc(c(C)c2c1)-c3ccnc(N)n3]",–
< 5,"Cc1c(-c2ccnc(N)n2)sc2ccc(C(=O)N(CCO)CCO)cc12 [Example 480, Cc1c(sc2ccc(cc12)C(═O)N(CCO)CCO)-c3ccnc(N)n3]",–
< 5,"CCOC(=O)CC(C)NC(=O)c1ccc2sc(-c3ccnc(N)n3)c(C)c2c1 (stereo not shown) [Example 390, CCOC(═O)CC(C)NC(═O)c1ccc2sc(c(C)c2c1)-c3ccnc(N)n3]",–
> 5,"Cc1c(-c2ccnc(N)n2)sc2ccc(C(=O)NCCCN3CCCC3=O)cc12 [Example 411, Cc1c(sc2ccc(cc12)C(═O)NCCCN3CCCC3═O)-c4ccnc(N)n4]",–

"IC50 [2, 4] [µM]",Compound,other results
> 5,"Cc1c(-c2ccnc(N)n2)sc2ccc(C(=O)N3CCCCC3CCO)cc12 (stereo not shown) [Example 497, Cc1c(sc2ccc(cc12)C(═O)N3CCCCC3CCO)-c4ccnc(N)n4]",–
< 5,"Cc1c(-c2ccnc(N)n2)sc2ccc(C(=O)N3CCc4ccccc4C3)cc12 [Example 498, Cc1c(sc2ccc(cc12)C(═O)N3CCc4ccccc4C3)-c5ccnc(N)n5]",–
> 5,"Cc1c(-c2ccnc(N)n2)sc2ccc(C(=O)NCc3ccc(C(C)(C)C)cc3)cc12 [Example 436, Cc1c(sc2ccc(cc12)C(═O)NCc3ccc(cc3)C(C)(C)C)-c4ccnc(N)n4]",–
< 5,"Cc1c(-c2ccnc(N)n2)sc2ccc(C(=O)NC3CCN(Cc4ccccc4)CC3)cc12 [Example 452, Cc1c(sc2ccc(cc12)C(═O)NC3CCN(CC3)Cc4ccccc4)-c5ccnc(N)n5]",–
> 5,"CC(=O)N[C@H]1CCN(C(=O)c2ccc3sc(-c4ccnc(N)n4)c(C)c3c2)C1 [Example 495, CC(═O)N[C@H]1CCN(C1)C(═O)c2ccc3sc(c(C)c3c2)-c4ccnc(N)n4]",–
< 5,"CCN(C(=O)c1ccc2sc(-c3ccnc(N)n3)c(C)c2c1)C1CCCCC1 [Example 493, CCN(C1CCCCC1)C(═O)c2ccc3sc(c(C)c3c2)-c4ccnc(N)n4]",–
< 5,"CCCN(CCC)C(=O)c1ccc2sc(-c3ccnc(N)n3)c(C)c2c1 [Example 478, CCCN(CCC)C(═O)c1ccc2sc(c(C)c2c1)-c3ccnc(N)n3]",–
< 5,"C#CCNC(=O)c1ccc2sc(-c3ccnc(N)n3)c(C)c2c1 [Example 331, Cc1c(sc2ccc(cc12)C(═O)NCC#C)-c3ccnc(N)n3]",–
< 5,"Cc1c(-c2ccnc(N)n2)sc2ccc(C(=O)NCCc3ccc4c(c3)OCO4)cc12 [Example 456, Cc1c(sc2ccc(cc12)C(═O)NCCc3ccc4OCOc4c3)-c5ccnc(N)n5]",–
< 5,"Cc1c(-c2ccnc(N)n2)sc2ccc(C(=O)NCCc3ccc(Cl)cc3)cc12 [Example 428, Cc1c(sc2ccc(cc12)C(═O)NCCc3ccc(Cl)cc3)-c4ccnc(N)n4]",–
< 5,"Cc1c(-c2ccnc(N)n2)sc2ccc(C(=O)N(CCO)[C@H](C)c3ccccc3)cc12 [Example 516, C[C@@H](N(CCO)C(═O)c1ccc2sc(c(C)c2c1)-c3ccnc(N)n3)c4ccccc4]",–
> 5,"Cc1c(-c2ccnc(N)n2)sc2ccc(C(=O)NCc3ccc(Cl)c(Cl)c3)cc12 [Example 446, Cc1c(sc2ccc(cc12)C(═O)NCc3ccc(Cl)c(Cl)c3)-c4ccnc(N)n4]",–
< 5,"Cc1c(-c2ccnc(N)n2)sc2ccc(C(=O)N3CCN(c4cccc(Cl)c4)CC3)cc12 [Example 544, Cc1c(sc2ccc(cc12)C(═O)N3CCN(CC3)c4cccc(Cl)c4)-c5ccnc(N)n5]",–
< 5,"COc1cccc(CCNC(=O)c2ccc3sc(-c4ccnc(N)n4)c(C)c3c2)c1 [Example 421, COc1cccc(CCNC(═O)c2ccc3sc(c(C)c3c2)-c4ccnc(N)n4)c1]",–
> 5,"Cc1ccc(N2CCN(C(=O)c3ccc4sc(-c5ccnc(N)n5)c(C)c4c3)CC2)c(C)c1 [Example 538, Cc1ccc(N2CCN(CC2)C(═O)c3ccc4sc(c(C)c4c3)-c5ccnc(N)n5)c(C)c1]",–
< 5,"Cc1cnc(CNC(=O)c2ccc3sc(-c4ccnc(N)n4)c(C)c3c2)cn1 [Example 381, Cc1cnc(CNC(═O)c2ccc3sc(c(C)c3c2)-c4ccnc(N)n4)cn1]",–

Compound,"IC50 [2, 4] [µM]",other results
"Cc1ccc(C(=O)NCc2ccc3sc(-c4ccnc(N)n4)c(C)c3c2)cc1 [Example 120, Cc1ccc(cc1)C(═O)NCc2ccc3sc(c(C)c3c2)-c4ccnc(N)n4]",< 5,"IC50 [1, 3]: > 5 µM"
"CC(=O)c1ccc(C(=O)NCc2ccc3sc(-c4ccnc(N)n4)c(C)c3c2)cc1 [Example 162, CC(═O)c1ccc(Cc1)C(═O)NCc2ccc3sc(c(C)c3c2)-c4ccnc(N)n4]",< 5,"IC50 [1, 3]: > 5 µM"
"Cc1c(-c2ccnc(N)n2)sc2ccc(C(=O)NCc3ccc(C(C)C)cc3)cc12 [Example 419, CC(C)c1ccc(CNC(═O)c2ccc3sc(c(C)c3c2)-c4ccnc(N)n4)cc1]",< 5,–
"CCOC(=O)N1CCN(C(=O)c2ccc3sc(-c4ccnc(N)n4)c(C)c3c2)CC1 [Example 511, CCOC(═O)N1CCN(CC1)C(═O)c2ccc3sc(c(C)c3c2)-c4ccnc(N)n4]",> 5,–
"CC(=O)c1ccc(N2CCN(C(=O)c3ccc4sc(-c5ccnc(N)n5)c(C)c4c3)CC2)cc1 [Example 550, CC(═O)c1ccc(cc1)N2CCN(CC2)C(═O)c3ccc4sc(c(C)c4c3)-c5ccnc(N)n5]",> 5,–
